The values below are quoted from earlier work in patent US12133903B2, “Oral care article comprising a delivery carrier and solid hydrophilic particles comprising a bleaching agent” (The Procter & Gamble Company, priority 2020, dated 2024).

The conditions of this series: in water; supplier data sheet / Safety Data Sheet / Wikipedia.

Regarding `NC(N)=O.OO` [Urea Hydrogen Peroxide Adduct], the Solubility was 80 parts per 100 parts of water.
